# Measured values as given in patent US6584980B1, “Tobacco products with stabilized additives having vitamin E activity” (Rousseau Research, Institute, priority 1998, dated 2003).
# Columns and labels:
# [1] = tobacco air curing, vacuum infiltration; cited from earlier work
# [2] = system: non-tobacco user; assay: Comparison of a normal smokeless tobacco wad and a wad with dry Vitamin E analog, placed between cheek and gum; type: in vivo; conditions: 0.1 grams mixed with 10.0 grams SKOAL long cut smokeless tobacco, 1.0 gram wad between cheek and gum
# From the text: A third comparison was made between a normal wad of smokeless tobacco and a wad of smokeless tobacco modified to include a substantially pure, “dry” form of Vitamin E analog. For this comparison, 1.0 gram of unmodified SKOAL® long cut smokeless tobacco (i.e., snuff) was first placed in the mouth of a non-tobacco user between the cheek and gum. This unmodified smokeless tobacco produced a pleasant flavor but also a simultaneous burning sensation in the mouth, throat and esophagus which, along with an induced cough, forced the non-tobacco user to spit out the unmodified smokeless tobacco. To clear the burning sensation from mouth, the non-tobacco user washed mouth out with water. Nonetheless, the burning sensation persisted in the mouth and throat for over 5 minutes after the initial washing.
# Approximately four hours later, long enough to ensure the sensitivity and the burning sensation had completely subsided, the non-tobacco user then mixed 0.1 grams of Vitamin E acid succinate obtained from the Eastman Chemical Corporation of Kingsport, Tenn. with 10.0 grams of SKOAL® long cut smokeless tobacco. A 1.0 gram wad of this Vitamin E modified smokeless tobacco was then placed in the mouth of the non-tobacco user between the cheek and gum. Like the unmodified snuff, this Vitamin E modified snuff produced a similar pleasant flavor.
# [3] = system: smoker and non-smoker; assay: Comparison of a normal filterless cigarette and a filterless cigarette with dry Vitamin E analog, smoked; type: in vivo
# From the text: A comparison was made between a normal filterless cigarette and a filterless cigarette modified to include a substantially pure, “dry” form of Vitamin E analog. For this comparison, […] of CHESTERFIELD® tobacco were removed from a CHESTERFIELD® cigarette and mixed with 0.1 grams of Vitamin E acid succinate. The mixed tobacco blend was formed into a filterless cigarette using a Rizla auto rolling box. A control cigarette, without Vitamin E analog additive, was also formed using the same Rizla auto rolling box.
# [4] = stand-alone additive, apart from an alcohol mixture; cited from earlier work
# [5] = system: non-smoker; assay: Comparison of a normal filtered cigarette and cigarettes with oily Vitamin E injected into the filter or the tobacco, puffs by a non-smoker; type: in vivo; conditions: for lung irritation and coughing: three puffs, non-smoker
# From the text: A second comparison was made between a normal filtered cigarette, a filtered cigarette with oily Vitamin E injected into the filter and oily Vitamin E injected into the length of the tobacco. In this second comparison, the control cigarette was a normal MARLBORO® cigarette. In two separate MARLBORO® cigarettes, oily Vitamin E was taken from a Vitamin E capsule with a syringe and injected into the filter of one cigarette and into the length of the tobacco of the other cigarette.
# The three cigarettes where then lit with a butane lighter and three equal, alternating puffs were taken from each cigarette by a non-smoker. […] The cigarette with Vitamin E along the length of the tobacco yielded no irritation. Moreover, the flavor of the Vitamin E tobacco cigarette gave the impression of having been enhanced.
smiles,measurement,setting,value
Cc1c(C)c2c(c(C)c1O)CC[C@@](C)(CCC[C@H](C)CCC[C@H](C)CCCC(C)C)O2 [alpha-tocopherol],diminution in concentration during the curing process,[1],25%
"Cc1c(C)c2c(c(C)c1OC(=O)CCC(=O)O)CC[C@@](C)(CCC[C@H](C)CCC[C@H](C)CCCC(C)C)O2 [Vitamin E acid succinate, d-alpha tocopheryl acid succinate]","irritation (burning sensation) of mouth, throat and esophagus",[2],completely non-irritating
same,throat or lung irritation when smoked,"[3]; 0.1 grams mixed with 7.5 grams CHESTERFIELD tobacco, filterless cigarette, smoker and non-smoker, control caused throat and lung irritation",no throat or lung irritation
same,"throat or lung irritation, retest on the same samples",[3]; retest after several days and again after several weeks,the same results
"Cc1c(C)c2c(c(C)c1O)CC[C@@](C)(CCC[C@H](C)CCC[C@H](C)CCCC(C)C)O2 [Vitamin E, d-alpha tocopherol]",neutralizing NNN,[4],ineffective
same,lung irritation and coughing,"[5]; oily Vitamin E injected into the filter of a MARLBORO cigarette, control irritated lungs and induced coughing",less irritating but still induced an unpleasant lung reaction and a slight cough
same,lung irritation and coughing,[5]; oily Vitamin E injected into the length of the tobacco of a MARLBORO cigarette,no irritation
same,"beneficial effect on irritation, retest on the same samples","[5]; retest after several days, taken to indicate the Vitamin E had oxidized/metabolized",the beneficial effect was gone
